Source: patent publication US10167279B2 (NOVARTIS AG, priority 2014, dated 2019)

target: C-Raf FL (Homo sapiens (Human), UniProt P04049, Y340E/Y341E); assay: In vitro Raf activity determination (Alpha Screen, phospho-MEK), C-Raf FL (full length, Y340E/Y341E); format: biochemical; conditions: ATP 1 μM; 60 min pre-incubation; 1 hour reaction; column head does not say FL or TR
Source text: The activity of a compound according to the present invention can be assessed by well-known in vitro & in vivo methods. Raf inhibition data provided herein was obtained using the following procedures.
Sf9 cells co-expressing both proteins were lysed and subjected to immobilized nickel chromatography and eluted with Imidazole. A second column (StrepII binding column) was used and eluted with desthiobiotin. Protein Tags were removed using Prescission enzyme and the protein was further purified using a flowthrough step to remove tags.
C-Raf TR refers to a truncated C-Raf protein, a Δ1-324 deletion mutant. C-Raf FL refers to the full-length C-Raf protein.
Full length MEK1 with an inactivating K97R ATP binding site mutation is utilized as a RAF substrate. The MEK1 cDNA was subcloned with an N-terminal (his)6 tag into a vector for E. Coli expression. The MEK1 substrate was purified from E. Coli lysate by nickel affinity chromatography followed by anion exchange. The final MEK1 preparation was biotinylated (Pierce EZ-Link Sulfo-NHS-LC-Biotin) and concentrated.
Assay protocol: Raf and biotinylated Mek (kinase dead) were combined at 2× final concentrations in assay buffer (50 mM Tris, pH 7.5, 15 mM MgCl2, 0.01% BSA and 1 mM DTT) and dispensed […] per well in assay plates (Greiner white 384 well assay plates #781207) containing […] of 40× of a Raf kinase inhibitor test compound diluted in 100% DMSO. The plate was incubated for 60 minutes at room temperature. […] The reactions were stopped and the phosphorylated product was measured using a rabbit anti-p-MEK (Cell Signaling, #9121) antibody and the Alpha Screen IgG (ProteinA) detection Kit (PerkinElmer #6760617R), by the addition of […] to the well of a mixture of the antibody (1:2000 dilution) and detection beads (1:2000 dilution of both beads) in Stop/bead buffer (25 mM EDTA, 50 mM Tris, pH 7.5, 0.01% Tween20). The additions were carried out under dark conditions to protect the detection beads from light. A lid was placed on top of the plate and incubated for 1 hour at room temperature, after which the luminescence was read on a PerkinElmer Envision instrument. The concentration of each compound for 50% inhibition (IC50) was calculated by non-linear regression using XL Fit data analysis software.

Chain of C-Raf FL (P04049 whole entry Y340E/Y341E): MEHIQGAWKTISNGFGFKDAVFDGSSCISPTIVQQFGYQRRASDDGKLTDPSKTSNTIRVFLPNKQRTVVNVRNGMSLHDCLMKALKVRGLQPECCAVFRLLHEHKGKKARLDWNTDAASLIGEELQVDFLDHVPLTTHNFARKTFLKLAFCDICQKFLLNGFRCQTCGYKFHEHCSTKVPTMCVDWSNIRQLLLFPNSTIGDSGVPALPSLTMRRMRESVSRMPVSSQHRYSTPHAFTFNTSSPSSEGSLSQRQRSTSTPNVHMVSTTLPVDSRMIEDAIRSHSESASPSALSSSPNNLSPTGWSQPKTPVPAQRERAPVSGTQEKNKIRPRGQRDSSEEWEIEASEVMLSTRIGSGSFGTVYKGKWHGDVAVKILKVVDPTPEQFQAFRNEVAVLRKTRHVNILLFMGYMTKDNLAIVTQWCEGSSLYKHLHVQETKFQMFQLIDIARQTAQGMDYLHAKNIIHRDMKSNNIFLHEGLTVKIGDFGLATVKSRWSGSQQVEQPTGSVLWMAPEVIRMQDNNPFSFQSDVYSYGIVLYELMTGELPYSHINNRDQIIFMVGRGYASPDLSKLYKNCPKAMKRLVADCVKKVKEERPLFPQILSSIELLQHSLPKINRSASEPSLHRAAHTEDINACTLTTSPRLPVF
Chain of C-Raf FL (P63104 whole entry partner): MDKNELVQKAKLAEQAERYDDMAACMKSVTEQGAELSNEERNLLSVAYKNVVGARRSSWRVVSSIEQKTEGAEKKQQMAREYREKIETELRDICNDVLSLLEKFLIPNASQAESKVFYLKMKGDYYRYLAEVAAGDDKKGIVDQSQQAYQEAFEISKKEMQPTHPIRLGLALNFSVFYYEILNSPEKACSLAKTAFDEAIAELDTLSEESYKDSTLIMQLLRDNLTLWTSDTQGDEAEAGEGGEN

IC50 [nM]	SMILES
2	Cc1ccc(NC(=O)c2ccnc(C(C)(F)F)c2)cc1-c1cnc(-c2cn(C)nc2C)c(C2(O)COC2)c1 [Example 12, 2-(1,1-difluoroethyl)-N-(3-(6-(1,3-dimethyl-1H-pyrazol-4-yl)-5-(3-hydroxyoxetan-3-yl)pyridin-3-yl)-4-methylphenyl)isonicotinamide]
1	Cc1ccc(NC(=O)c2ccnc(C(C)(F)F)c2)cc1-c1c[nH]c(=O)c(C2(O)COC2)c1 [Example 13, 2-(1,1-difluoroethyl)-N-(3-(5-(3-hydroxyoxetan-3-yl)-6-oxo-1,6-dihydropyridin-3-yl)-4-methylphenyl)isonicotinamide]
0.2	Cc1ccc(NC(=O)c2ccnc(C(F)(F)F)c2)cc1-c1cc(C2(C)COC2)c(OCCO)nn1 [Example 14, N-(3-(6-(2-hydroxyethoxy)-5-(3-methyloxetan-3-yl)pyridazin-3-yl)-4-methylphenyl)-2-(trifluoromethyl)isonicotinamide]
1	Cc1ncc(NC(=O)c2cccc(C(F)(F)F)c2)cc1-c1cc(C2(C)COC2)c(=O)[nH]n1 [Example 15, N-(6-methyl-5-(5-(3-methyloxetan-3-yl)-6-oxo-1,6-dihydropyridazin-3-yl)pyridin-3-yl)-3-(trifluoromethyl)benzamide]
0.4	Cc1ncc(NC(=O)c2cccc(C(F)(F)F)c2)cc1-c1cc(C2(C)COC2)c(OCCO)nn1 [Example 16, N-(5-(6-(2-hydroxyethoxy)-5-(3-methyloxetan-3-yl)pyridazin-3-yl)-6-methylpyridin-3-yl)-3-(trifluoromethyl)benzamide]
0.7	COc1ncc(-c2cc(C(=O)Nc3ccnc(C(F)(F)F)c3)ccc2C)cc1C1(O)COC1 [Example 17, 3-(5-(3-hydroxyoxetan-3-yl)-6-methoxypyridin-3-yl)-4-methyl-N-(2-(trifluoromethyl)pyridin-4-yl)benzamide]
0.6	COc1ncc(-c2cc(C(=O)Nc3cccc(C(F)F)c3)ccc2C)cc1C1(O)COC1 [Example 18, N-(3-(difluoromethyl)phenyl)-3-(5-(3-hydroxyoxetan-3-yl)-6-methoxypyridin-3-yl)-4-methylbenzamide]
7	COc1ncc(-c2cc(NC(=O)c3cc(C(F)(F)F)cc(C(C)(C)N)n3)ccc2C)cc1C1(O)COC1 [Example 19, 6-(2-aminopropan-2-yl)-N-(3-(5-(3-hydroxyoxetan-3-yl)-6-methoxypyridin-3-yl)-4-methylphenyl)-4-(trifluoromethyl)picolinamide]
0.3	CCOc1ncc(-c2cc(NC(=O)c3ccnc(C(C)(C)F)c3)cnc2C)cc1C1(CF)COC1 [Example 32, N-(6′-ethoxy-5′-(3-(fluoromethyl)oxetan-3-yl)-2-methyl-[3,3′-bipyridin]-5-yl)-2-(2-fluoropropan-2-yl)isonicotinamide]
3.47	Cc1ncc(NC(=O)c2ccnc(C(C)(C)F)c2)cc1-c1cnc(OCCO)c(C2(F)COC2)c1 [Example 40, N-(5′-(3-fluorooxetan-3-yl)-6′-(2-hydroxyethoxy)-2-methyl-[3,3′-bipyridin]-5-yl)-2-(2-fluoropropan-2-yl)isonicotinamide]
0.245	Cc1ccc(NC(=O)c2ccnc(C(C)(C)F)c2)cc1-c1cnc(OCCO)c(C2(F)COC2)c1 [Example 41, N-(3-(5-(3-fluorooxetan-3-yl)-6-(2-hydroxyethoxy)pyridin-3-yl)-4-methylphenyl)-2-(2-fluoropropan-2-yl)isonicotinamide]
51.5	Cc1ncc(NC(=O)c2cccc(C(F)(F)F)c2)cc1-c1cc(C2(F)COC2)c(=O)n(CCO)c1 [Example 46, N-(5′-(3-fluorooxetan-3-yl)-1′-(2-hydroxyethyl)-2-methyl-6′-oxo-1′,6′-dihydro-[3,3′-bipyridin]-5-yl)-3-(trifluoromethyl)benzamide]
4.35	Cc1ccc(NC(=O)c2ccnc(C(F)(F)F)c2)cc1-c1cc(C2(F)COC2)cc(OCCO)n1 [Example 47, N-(3-(4-(3-fluorooxetan-3-yl)-6-(2-hydroxyethoxy)pyridin-2-yl)-4-methylphenyl)-2-(trifluoromethyl)isonicotin-amide]
7.53	Cc1ncc(NC(=O)c2ccnc(C(C)(C)F)c2)cc1-c1cc(C2(F)COC2)cc(OCCO)n1 [Example 48]
3.29	Cc1ncc(NC(=O)c2ccnc(C(C)(C)F)c2)cc1-c1cc(OCCO)nc(C2(F)COC2)c1 [Example 50, N-(2′-(3-fluorooxetan-3-yl)-6′-(2-hydroxyethoxy)-2-methyl-[3,4′-bipyridin]-5-yl)-2-(2-fluoropropan-2-yl)isonicotinamide]
2.79	Cc1ncc(NC(=O)c2ccnc(C(F)(F)F)c2)cc1-c1cc(OCCO)nc(C2(F)COC2)c1 [Example 51, N-(2′-(3-fluorooxetan-3-yl)-6′-(2-hydroxyethoxy)-2-methyl-[3,4′-bipyridin]-5-yl)-2-(trifluoromethyl)isonicotin-amide]
2.15	Cc1ncc(NC(=O)c2cccc(C(F)(F)F)c2)cc1-c1cc(OCCO)nc(C2(F)COC2)c1 [Example 52, N-(2′-(3-fluorooxetan-3-yl)-6′-(2-hydroxyethoxy)-2-methyl-[3,4′-bipyridin]-5-yl)-3-(trifluoromethyl)benzamide]
0.624	Cc1ccc(NC(=O)c2ccnc(C(F)F)c2)cc1-c1cc(OCCO)nc(C2(F)COC2)c1 [Example 53]
0.211	Cc1ccc(NC(=O)c2ccnc(C(C)(F)F)c2)cc1-c1cc(OCCO)nc(C2(F)COC2)c1 [Example 54, 2-(1,1-difluoroethyl)-N-(3-(2-(3-fluorooxetan-3-yl)-6-(2-hydroxyethoxy)pyridin-4-yl)-4-methylphenyl)isonicotin-amide]
0.0747	Cc1ccc(NC(=O)c2ccnc(C(F)F)c2)cc1-c1cc(OCCO)nc(C2(CF)COC2)c1 [Example 55, 2-(difluoromethyl)-N-(3-(2-(3-(fluoromethyl)oxetan-3-yl)-6-(2-hydroxyethoxy)pyridin-4-yl)-4-methylphenyl)isonicotin-amide]
0.281	Cc1ccc(NC(=O)c2ccnc(C(C)(F)F)c2)cc1-c1cc(OCCO)nc(C2(CF)COC2)c1 [Example 56, 2-(1,1-difluoroethyl)-N-(3-(2-(3-(fluoromethyl)oxetan-3-yl)-6-(2-hydroxyethoxy)pyridin-4-yl)-4-methylphenyl)isonicotin-amide]
0.149	Cc1ccc(NC(=O)c2ccnc(C(F)(F)F)c2)cc1-c1cc(OCCO)nc(C2(CF)COC2)c1 [Example 57, N-(3-(2-(3-(fluoromethyl)oxetan-3-yl)-6-(2-hydroxyethoxy)pyridin-4-yl)-4-methylphenyl)-2-(trifluoromethyl)isonicotin-amide]
0.0155	Cc1ccc(NC(=O)c2ccnc(C(F)(F)F)c2)cc1-c1cc(OCCO)nc(C2(C(F)F)COC2)c1 [Example 58, N-(3-(2-(3-(difluoromethyl)oxetan-3-yl)-6-(2-hydroxyethoxy)pyridin-4-yl)-4-methylphenyl)-2-(trifluoromethyl)isonicotin-amide]
0.103	COC1(c2cc(-c3cc(NC(=O)c4ccnc(C(F)(F)F)c4)ccc3C)cnc2OCCO)COC1 [Example 59, N-(3-(6-(2-hydroxyethoxy)-5-(3-methoxyoxetan-3-yl)pyridin-3-yl)-4-methylphenyl)-2-(trifluoromethyl)isonicotin-amide]
0.203	COC1(c2cc(-c3cc(NC(=O)c4ccnc(C(C)(F)F)c4)ccc3C)cnc2OCCO)COC1 [Example 60, 2-(1,1-difluoroethyl)-N-(3-(6-(2-hydroxyethoxy)-5-(3-methoxyoxetan-3-yl)pyridin-3-yl)-4-methylphenyl)isonicotin-amide]
1.32	COC1(c2cc(-c3cc(NC(=O)c4ccnc(C(C)(C)F)c4)cnc3C)cnc2OCCO)COC1 [Example 61, 2-(2-fluoropropan-2-yl)-N-(6′-(2-hydroxyethoxy)-5′-(3-methoxyoxetan-3-yl)-2-methyl-[3,3′-bipyridin]-5-yl)isonicotinamide]
2	COc1ncc(-c2cc(NC(=O)c3ccnc(C(C)(C)C#N)c3)cnc2C)cc1C1(F)COC1 [Example 80, 2-(2-cyanopropan-2-yl)-N-(5′-(3-fluorooxetan-3-yl)-6′-methoxy-2-methyl-[3,3′-bipyridin]-5-yl)isonicotinamide]
0.0853	Cc1ncc(NC(=O)c2cccc(C(F)(F)F)c2)cc1-c1cc(OCCO)nc(C2(CF)COC2)c1 [Example 132, N-(2′-(3-(fluoromethyl)oxetan-3-yl)-6′-(2-hydroxyethoxy)-2-methyl-[3,4′-bipyridin]-5-yl)-3-(trifluoromethyl)benzamide]
